Test results published in ChEMBL document CHEMBL3259669, “The discovery and SAR of cyclopenta[b]furans as inhibitors of CCR2” (Bioorg Med Chem Lett, 2014).

How the values were obtained:
[1] = Plasma concentration in guinea pig at 10 mg/kg; assay type: ADME, organism-based, Cavia porcellus; set-up: dose 10 mg/kg; settings: in vivo
Plasma = experiment: Plasma concentration in thioglycolate-induced peritoneal leukocyte infiltration in human CCR2 knock-in mouse model at 1 mg/kg, po; assay type: ADME, organism-based; set-up: dose 1 mg/kg, route oral; settings: in vivo
[2] = buffer
[3] = human, microsomes
[4] = rat, microsomes
Rattus norvegicus = organism: Rattus norvegicus; settings: in vivo, iv, 2 mg/kg
in vivo [5] = settings: rat
in vivo [6] = settings: rat, po, 10 mg/kg
in vivo [7] = settings: rat, plasma
in vivo [8] = settings: rat, iv, 2 mg/kg
in vivo [9] = settings: rat, po, 10 mg/kg; remark: listed apart in the source

| concentration [1] [µM] | concentration (Plasma) [µM] | solubility [2] | Stability [3] | Stability [4] | CL (Rattus norvegicus) [mL/mg/kg] | half-life (in vivo [5]) [h] | Cmax (in vivo [6]) [ng/mL] | AUC(0-t) (in vivo [7]) [ng·h/mL] | Vd (in vivo [8]) [L/kg] | bioavailability (in vivo [9]) [%] | Structure (SMILES) |
| --- | --- | --- | --- | --- | --- | --- | --- | --- | --- | --- | --- |
| 23 | 0.097 | soluble | Stable | Stable | 15.6 | 3.8 | 2200 | 9760 | 3.2 | 94 | CO[C@@H]1COCC[C@@H]1N[C@@H]1C[C@H]2OCC[C@@]2(C(=O)N2CCc3ncc(C(F)(F)F)cc3C2)C1 |
| 18 | 0.098 | soluble | Stable | Stable | 43.2 | 3.5 | 632 | 3540 | 5 | 91 | CO[C@H]1COCC[C@H]1N[C@@H]1C[C@H]2OCC[C@@]2(C(=O)N2CCc3ncc(C(F)(F)F)cc3C2)C1 |
